Experimental data: patent publication US8815935B2, “Inhibitors of protein prenyltransferases” (The Regents of the University of California, priority 2008, dated 2014)

Assays:
[1] = target: T1, RabGGTase (Rattus norvegicus, UniProt Q08602+Q08603); test: In vitro RabGGTase (GGTase-II) assay with REP-1; format: biochemical
T1 construct: purchased JENA BIOSCIENCE
T1 sequence (Q08602 1-567): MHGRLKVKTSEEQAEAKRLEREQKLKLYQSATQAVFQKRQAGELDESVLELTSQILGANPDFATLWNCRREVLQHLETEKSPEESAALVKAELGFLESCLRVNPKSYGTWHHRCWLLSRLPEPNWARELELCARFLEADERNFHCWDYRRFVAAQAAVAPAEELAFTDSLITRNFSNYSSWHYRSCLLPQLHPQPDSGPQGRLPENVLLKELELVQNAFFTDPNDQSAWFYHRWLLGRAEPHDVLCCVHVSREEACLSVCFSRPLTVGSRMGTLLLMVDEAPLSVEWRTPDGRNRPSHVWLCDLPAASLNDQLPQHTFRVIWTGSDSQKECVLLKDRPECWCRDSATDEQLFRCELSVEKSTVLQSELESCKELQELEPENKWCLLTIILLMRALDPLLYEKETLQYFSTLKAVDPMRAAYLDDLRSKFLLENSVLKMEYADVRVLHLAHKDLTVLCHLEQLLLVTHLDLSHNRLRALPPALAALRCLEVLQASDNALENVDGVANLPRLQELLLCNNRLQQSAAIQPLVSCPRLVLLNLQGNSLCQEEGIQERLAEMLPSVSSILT
T1 sequence (Q08603 1-331): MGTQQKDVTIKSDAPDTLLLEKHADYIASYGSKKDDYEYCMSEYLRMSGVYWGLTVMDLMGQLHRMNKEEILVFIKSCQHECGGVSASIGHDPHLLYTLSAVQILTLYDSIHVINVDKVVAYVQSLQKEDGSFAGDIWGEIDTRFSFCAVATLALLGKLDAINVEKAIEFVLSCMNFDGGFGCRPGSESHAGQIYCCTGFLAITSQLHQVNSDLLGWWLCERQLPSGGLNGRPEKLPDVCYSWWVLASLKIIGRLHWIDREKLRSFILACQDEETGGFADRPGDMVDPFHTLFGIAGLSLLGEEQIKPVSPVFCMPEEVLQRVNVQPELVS
Protocol: The GGTase-I assay was carried out using RhoA as a substrate protein, GGTase-I (JENA Bioscience) and [3H]geranylgeranyl pyrophosphate. Incubation was for 30 min at 37° C. GGTase-II (or RabGGTase) assay was carried out using YPTI as a substrate protein, GGTase-II (Calbiochem, San Diego, Calif.) plus REP1 (Calbiochem) and [3H]geranylgeranyl pyrophosphate. Incubation was for 30 min at 37° C. FIGS. 20D-20F show the three dimensional structure of GGTase I (D), FTsse (E) and GGTase II (F) which can be obtained from X-ray diffraction studies of protein crystals.
For RabGGTase assays, the reaction contained the following components in 20 μl; 0.625 μl of [^3H]-GGPP (0.7 μM), 25 nM RabGGTase, 0.6 μM REP-1, 0.6 μM purified Rab7 or Ypt1 protein, 40 mM HEPES (pH 7.5), 150 mM NaCl, 5 mM DTT, 3 mM MgCl2 and 0.3% CHAPS. Reactions were carried out for 20 min at 37° C. and the products were analyzed as described above for the GGTase-I reaction. Graphing and Michaelis-Menten analysis were performed using Prism version5 (GraphPad, San Diego Calif.).

[2] = target: T2, FTase (Rattus norvegicus, UniProt Q02293+Q04631); test: In vitro FTase assay (K-Ras4B substrate, [3H]FPP); format: biochemical
T2 construct: purchased JENA BIOSCIENCE
Description: To further characterize the pilot library, inhibitors of protein farnesyltransferase were identified. This was accomplished by using K-Ras4B as a substrate protein, tritiated farnesylpyrophosphate ([^3H]FPP) and protein farnesyltransferase. See Finegold, A. A., Johnson, D. I., Farnsworth, C. C., Gelb, M. H., Judd, S. R., Glomset, J. A. and Tamanoi, F. (1991) Protein geranylgeranyltransferase of Saccharomyces cerevisiae is specific for Cys-Xaa-Xaa-Leu motif and requires the CDC43 gene product but not the DPR1 gene product. Proc. Natl. Acad. Sci. USA 88, 4448-4452. […] On the other hand, the structure of the compounds P1-F11, P2-B7 and P2-E9 resemble those of GGTIs. The FTI P1-F11 resembles the GGTI P1-F10, while the FTI P2-B7 resembles the GGTI P2-C10. The FTI P2-E9 is similar to the GGTI P2-G3. Similarity of some GGTI and FTI compounds may point to common structural features between the two closely related enzymes. As described before, FTase and GGTase I have similar three-dimensional structures and a shared alpha subunit. On the other hand, FTase specific inhibitors may recognize a region(s) that is different between the two enzymes.
Examples 2-8 illustrate assays of bioactivity. These methods are applicable to the compounds of the present invention having the particular linkers and scaffolds described herein, to determine their activity. […] Varying concentrations of the two compounds were added to each enzyme reaction. The FTase (protein farnesyltransferase) assay was carried out using K-Ras4B as a substrate protein, FTase (JENA Bioscience, San Diego, Calif.) and [3H]farnesyl pyrophosphate. Incubation was for 30 min at 37° C.
GGTase-I and FTase activities were determined by following the incorporation of radiolabeled isoprenoid [^3H]-geranylgeranyl or [^3H]-farnesyl into substrate proteins. FTase or GGTase-I (50 nM) were used to initiate reactions containing 0.4 μM of [^3H]-FPP or 0.5 μM of [^3H]-GGPP and 2 μM of MBP-tagged substrates (K-Ras4B for FTase; RhoA for GGTase-I) in 20 μl of buffer {50 mM Tris-HCl (pH 7.5), 10 mM MgCl2, […] and 5 mM DTT}. Inhibitors were added at the indicated concentrations. The final DMSO concentration was 2.5% for all samples.
Reactions were carried out for 10 min at 30° C. The reaction mixture was spotted onto a filter paper, treated with 10% trichloroacetic acid (TCA) followed by ethanol and acetone washing. The filter was counted using a scintillation counter. Kinetic assays in which the GGPP concentration was varied employed fixed concentrations of GGTase-I and RhoA, and reactions were carried out for 5 min. Similarly, fixed concentrations of GGTase-I and GGPP were used when the amount of RhoA was varied.

[3] = system: K562 cells; test: K562 cell growth inhibition; format: cell-based, human; conditions: 72 hours
How it was run: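 Human erythroleukemia K562 cells exposed to compound for 72 hours. Cell number measured with CCK-8 and viability expressed relative to the DMSO control.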

[4] = concentration increased to 100,000 nM

inhibition of RabGGTase activity [1, 4] | inhibition of FTase activity [2, 4] | IC50 ([3]; Homo sapiens, K562, FIG. 36A, read-out: IC50, inhibition of proliferation of K562 cells) [nM] | inhibition of RabGGTase ([1]; even at 50,000 nM) | inhibition of FTase activity (FIG. 16) ([2]; P3-D9, P3-E5: concentration increased to 100 (unit not given)) | inhibition of FTase activity ([2]; concentration increased to 50,000 nM) | Structure (SMILES) | inhibition of proliferation of K562 cells ([3]; FIG. 23)
No significant inhibition | No significant inhibition | 2200 |  |  |  | Cc1ccccc1S(=O)(=O)N1C(c2ccc(Cl)cc2)C(C(=O)NC(Cc2ccccc2)C(N)=O)=CC1C(C)(C)C (stereo not shown) [P61-A6] | 
 |  |  | little inhibition | no inhibition of FTase activity | no significant inhibition | Cc1ccccc1S(=O)(=O)N1[C@@H](c2cccc(Cl)c2)C(C(=O)O)=CC[C@H]1c1ccc(Cl)cc1 [P3-E5] | inhibit the growth of the K562 cells
